# Measured values from PubChem BioAssay AID2060891 (Molecular Pharmacology Branch, DTP, NCI, 2025).
# Test system: K98450-129-R-PDC complex spheroid growth, percent test/control
# Test: Anticancer human tumor K98450-129-R-PDC patient-derived colon adenocarcinoma cell line growth inhibition [RAS]
# Settings: for IC50: curve of first compound; for viability, T/C: stronger effect = lower value
# How it was run: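 Multi-cell-type spheroids: tumor cells plus HUVEC endothelial cells and mesenchymal stem cells. RAS-pathway inhibitors were combined with targeted agents, each dosed in half-log steps down from clinical Cmax, or from 10 microM when Cmax was unknown.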
# [1] = second compound 0.000949 µM, first compound 0.0316 µM
# [2] = second compound 0.000949 µM, first compound 0.1 µM
# [3] = second compound 0.000949 µM, first compound 0.316 µM
# [4] = second compound 0.000949 µM, first compound 1 µM
# [5] = second compound 0.000949 µM, first compound 3.16 µM
# [6] = second compound 0.000949 µM, first compound 10 µM
# [7] = second compound 0.003 µM, first compound 0.0316 µM
# [8] = second compound 0.003 µM, first compound 0.1 µM
# [9] = second compound 0.003 µM, first compound 0.316 µM
# [10] = second compound 0.003 µM, first compound 1 µM
# [11] = second compound 0.003 µM, first compound 3.16 µM
# [12] = second compound 0.003 µM, first compound 10 µM
# [13] = second compound 0.00949 µM, first compound 0.0316 µM
# [14] = second compound 0.00949 µM, first compound 0.1 µM
# [15] = second compound 0.00949 µM, first compound 0.316 µM
# [16] = second compound 0.00949 µM, first compound 1 µM
# [17] = second compound 0.00949 µM, first compound 3.16 µM
# [18] = second compound 0.00949 µM, first compound 10 µM
# [19] = second compound 0.03 µM, first compound 0.0316 µM
# [20] = second compound 0.03 µM, first compound 0.1 µM
# [21] = second compound 0.03 µM, first compound 0.316 µM
# [22] = second compound 0.03 µM, first compound 1 µM
# [23] = second compound 0.03 µM, first compound 3.16 µM
# [24] = second compound 0.03 µM, first compound 10 µM
# [25] = second compound 0.0949 µM, first compound 0.0316 µM
# [26] = second compound 0.0949 µM, first compound 0.1 µM
# [27] = second compound 0.0949 µM, first compound 0.316 µM
# [28] = second compound 0.0949 µM, first compound 1 µM
# [29] = second compound 0.0949 µM, first compound 3.16 µM
# [30] = second compound 0.0949 µM, first compound 10 µM
# [31] = second compound 0.3 µM, first compound 0.0316 µM
# [32] = second compound 0.3 µM, first compound 0.1 µM
# [33] = second compound 0.3 µM, first compound 0.316 µM
# [34] = second compound 0.3 µM, first compound 1 µM
# [35] = second compound 0.3 µM, first compound 3.16 µM
# [36] = second compound 0.3 µM, first compound 10 µM
# 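Also: spheroids exposed to agents for seven days before the viability readout.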
# 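For viability, T/C in this document: luminescence used as a proxy for viable cell amount.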
compound,measurement,setting,value
Cc1nc(N2CCC3(CC2)COC(C)C3N)c(CO)nc1Sc1ccnc(N)c1Cl (centres undefined) + CCn1c(-c2cccnc2C(C)OC)c2c3cc(ccc31)N1CCOC(CC(NC(=O)C(C(C)C)N(C)C(=O)C3(F)CCN(C(=O)C#CC(C)(C)N(C)C)CC3)C(=O)N3CCCC(N3)C(=O)OCC(C)(C)C2)C1,IC50,second compound 0.000949 µM,365 nM
same,IC50,second compound 0.003 µM,41.5 nM
same,IC50,second compound 0.00949 µM,< 31.6 nM
same,IC50,second compound 0.03 µM,< 31.6 nM
same,IC50,second compound 0.0949 µM,< 31.6 nM
same,IC50,second compound 0.3 µM,< 31.6 nM
same,"viability, T/C",[1],71.8%
same,"viability, T/C",[2],64.7%
same,"viability, T/C",[3],54.1%
same,"viability, T/C",[4],27.5%
same,"viability, T/C",[5],12.1%
same,"viability, T/C",[6],9.55%
same,"viability, T/C",[7],53.4%
same,"viability, T/C",[8],39%
same,"viability, T/C",[9],16.9%
same,"viability, T/C",[10],10.4%
same,"viability, T/C",[11],8.15%
same,"viability, T/C",[12],7.47%
same,"viability, T/C",[13],32.7%
same,"viability, T/C",[14],21.6%
same,"viability, T/C",[15],12.3%
same,"viability, T/C",[16],8.57%
same,"viability, T/C",[17],8.2%
same,"viability, T/C",[18],6.2%
same,"viability, T/C",[19],26.1%
same,"viability, T/C",[20],14.9%
same,"viability, T/C",[21],10.7%
same,"viability, T/C",[22],10.1%
same,"viability, T/C",[23],6.29%
same,"viability, T/C",[24],6.11%
same,"viability, T/C",[25],20.9%
same,"viability, T/C",[26],16%
same,"viability, T/C",[27],8.78%
same,"viability, T/C",[28],8.48%
same,"viability, T/C",[29],8.98%
same,"viability, T/C",[30],6.05%
same,"viability, T/C",[31],21.7%
same,"viability, T/C",[32],14.2%
same,"viability, T/C",[33],10.3%
same,"viability, T/C",[34],8.27%
same,"viability, T/C",[35],8.02%
same,"viability, T/C",[36],6.57%
NC1c2ccccc2OC12CCN(c1cnc3c(N4CCCc5ncccc54)n[nH]c3n1)CC2 (centres undefined) + CCn1c(-c2cccnc2C(C)OC)c2c3cc(ccc31)N1CCOC(CC(NC(=O)C(C(C)C)N(C)C(=O)C3(F)CCN(C(=O)C#CC(C)(C)N(C)C)CC3)C(=O)N3CCCC(N3)C(=O)OCC(C)(C)C2)C1,IC50,second compound 0.000949 µM,< 31.6 nM
same,IC50,second compound 0.003 µM,< 31.6 nM
same,IC50,second compound 0.00949 µM,< 31.6 nM
same,IC50,second compound 0.03 µM,< 31.6 nM
same,IC50,second compound 0.0949 µM,< 31.6 nM
same,IC50,second compound 0.3 µM,< 31.6 nM
same,"viability, T/C",[1],44.8%
same,"viability, T/C",[2],23.5%
same,"viability, T/C",[3],11%
same,"viability, T/C",[4],7.16%
same,"viability, T/C",[5],6.94%
same,"viability, T/C",[6],8.73%
same,"viability, T/C",[7],21.5%
same,"viability, T/C",[8],12.4%
same,"viability, T/C",[9],7.71%
same,"viability, T/C",[10],6.76%
same,"viability, T/C",[11],6.52%
same,"viability, T/C",[12],7.13%
same,"viability, T/C",[13],15.6%
same,"viability, T/C",[14],9.32%
same,"viability, T/C",[15],7.2%
same,"viability, T/C",[16],6.45%
same,"viability, T/C",[17],6.54%
same,"viability, T/C",[18],7.85%
same,"viability, T/C",[19],12.8%
same,"viability, T/C",[20],9.35%
same,"viability, T/C",[21],7.81%
same,"viability, T/C",[22],6.41%
same,"viability, T/C",[23],6.04%
same,"viability, T/C",[24],6.71%
same,"viability, T/C",[25],11%
same,"viability, T/C",[26],8.32%
same,"viability, T/C",[27],6.62%
same,"viability, T/C",[28],6.26%
same,"viability, T/C",[29],5.17%
same,"viability, T/C",[30],7.13%
same,"viability, T/C",[31],9.99%
same,"viability, T/C",[32],6.92%
same,"viability, T/C",[33],6.83%
same,"viability, T/C",[34],6.04%
same,"viability, T/C",[35],5.35%
same,"viability, T/C",[36],6.26%
